Measured values as given in patent publication US9994566B2, “Compound of 5-hydroxyl-1,7-naphthyridine substituted by aryl or heteroaryl, preparation method thereof and pharmaceutical use thereof” (SHENYANG SUNSHINE PHARMACEUTICAL CO. LTD., priority 2015, dated 2018).
Several values for one entry are separate records, joined by “and”; a condition that tells them apart may be missing. Equal entries are not always repeated.

What was measured:
[1] = target: HIF Prolyl hydroxylases 2 (PHD2) (Homo sapiens, UniProt Q9GZT9); experiment: PHD2 inhibition, fluorescence polarization (FP) detection of HIF-1α / VBC complex interaction; type: biochemical; settings: PHD2 0.5 μg/μl, FAM-HIF (556-575) 1 μM, 30 minutes room temperature
Experimental: The interaction between hypoxia-inducible factor HIF-1α and VBC complex (von Hippel-Lindau protein-Elongin B-Elongin C, VBC) was detected by Fluorescence polarization (FP) method, to measure the enzyme inhibitory activity of the HIF Prolyl hydroxylases 2 (PHD2) inhibitor compounds.
Subsequently, the desired concentration of the test compound or the positive compound was added (the compound was replaced by the buffer in the negative control and the positive control). Finally, PHD2 was added at a final concentration of 0.5 μg/μl (PHD2 was replaced by the buffer in the negative control). They were mixed well and allowed to stand at room temperature for 30 minutes in the dark followed by 95° C. water bath for 1 minute, and then the reaction was terminated. After the temperature drops to room temperature, the sample was prepared well for use. EBC buffer (50 mM Tris.HCl, 120 mM NaCl, 0.5% NP-40) was added to the corresponding wells of a black 96-well test plate. A GST-VBC complex was added to the corresponding test wells at a final concentration of 300 nM (using the wells containing only EBC buffer as blank wells). Subsequently, the corresponding PHD2 prolyl hydroxylation reaction sample was added in the dark as a substrate with a final concentration of 100 nM. After mixing well, the lateral and longitudinal fluorescence intensity values were measured using a full-wavelength multifunctional microplate reader (TECAN infinite M1000) at an excitation wavelength of […] and an emission wavelength of 518 nm.
The fluorescence polarization (mP) was calculated: mP=1000×(lateral value−G factor×longitudinal value)/(lateral value+G factor×longitudinal value) wherein, lateral value=lateral fluorescence intensity value of test well−lateral fluorescence intensity value of blank well, longitudinal value=longitudinal fluorescence intensity value of test well−longitudinal fluorescence intensity value of blank well, […]
The IC50 was calculated using the non-linear regression data analysis method of Graphpad Prism 4.0 software ([…]).

[2] = tested on: hepatoma cells Hep3B; experiment: Promotion of erythropoietin (EPO) expression in hepatoma cells Hep3B in vitro (ELISA); type: cell-based, Human; settings: Hep3B supernatant, 24 hours, test doses 100 μmol/L and 10 μmol/L (dose of the tabulated value not given)
Excerpt: Biological Example 1: Development and Screening of In Vitro Detection Methods: Promotion of Erythropoietin Expression in Hepatoma Cells Hep3B In Vitro by HIF-PHD2 Inhibitor Compounds
The complete medium for culture of Experimental hepatoma cells Hep3B (China Center for Type Culture Collection, CCTCC) was MEM (Cat# GNM 41500, GIBCO, provided by Hangzhou Genom Biopharmaceutical Technology Co., Ltd) supplemented with 10% serum FBS (Cat#10099-141, GIBCO) and 1% P/S (Cat#GNM15140, provided by Hangzhou Genom Biopharmaceutical Technology Co., Ltd). Cells were cultured in a 37° C., 5% CO2 incubator. Experimental reagents included dimethyl sulfoxide (for molecular biology, >=99.9%, Catalog # D8418) purchased from Sigma. The ELISA kit was purchased from Quantikine IVD ELISA, Human Erythropoietin (R&D, DEP00). The test control AKB-6548 was prepared by the inventors or obtained by commercial purchase. The test substance was stored at −20° C. in the dark.
The test substance and the positive control substance were fully dissolved in sterile water or dimethylsulfoxide under dark conditions and prepared into a stock solution at a concentration of 10^−1 mol/L or 10^−2 mol/L. Each of the stock solutions was stored at −20° C. MEM medium containing 0.5% FBS was used as a diluent to dilute the stock solution of the test substance, to prepare a diluted test substance at a concentration of 100 μmol/L and 10 μmol/L. To a 96-well culture plate was added 200 μl/well (1.5 or 2.0×10^4 cells/well) of hepatoma cells Hep3B complete medium suspension and incubated overnight at 37° C. in a 5% CO2 incubator. The solution in the 96-well culture plate was removed and the cells were washed once with the MEM medium containing 0.5% FBS. 200 μl/well of the test substance was added in the dark, at a dose of 100 μmol/L and 10 μmol/L, and each dose set 2 wells, a test well and a spare well. A cell control well was prepared by replacing the test solution with the diluent (without test substance and solvent). A solvent control well was prepared by replacing the test solution with the diluent containing the corresponding concentration of solvent (dimethylsulfoxide) (without test substance). They were cultured in a 5% CO2 incubator at 37° C. for 24 hours. The supernatant was absorbed as a sample and cryopreserved at −20° C. for use. 100 μl/well of stop solution was added. OD value was detected by microplate reader A450 nm-A600 nm. The expression level of EPO (mIU/mL) promoted by the test substance was obtained according to the standard curve.

[3] = tested on: male Balb/c mice; experiment: Effect on increasing erythrocyte of normal mice: reticulocyte (RETIC) count; type: in vivo; settings: 25 mg/kg, oral, once a day × 3, four hours after the last administration; for RETIC, individual mice (Mice No. 1-8): one value per mouse; for RETIC, Average: orbital blood
Experimental: Biological Example 3: Effect of the Compounds of the Present Invention on Increasing Erythrocyte of Normal Mice
80 male Balb/c mice were divided into 11 groups, with 8 animals for each drug group, 10 animals for blank control group. Drug group: AKB-6548, 100 mg/kg, oral administration, once a day×3; FG-4592, 25 mg/kg, oral administration, once a day×3; EPO, 100 IU/kg, Day 1 and Day 3, subcutaneous injection, as positive control groups. Each of the compounds of the present invention was orally administrated at 25 mg/kg, once a day×3. Four hours after the last administration, orbital blood of all animals were collected and treated with EDTA-K2 anticoagulant, and reticulocytes (RETIC) were counted with a blood cell automated analyzer.

Chain of HIF Prolyl hydroxylases 2 (PHD2) (Q9GZT9 whole entry, species assumed): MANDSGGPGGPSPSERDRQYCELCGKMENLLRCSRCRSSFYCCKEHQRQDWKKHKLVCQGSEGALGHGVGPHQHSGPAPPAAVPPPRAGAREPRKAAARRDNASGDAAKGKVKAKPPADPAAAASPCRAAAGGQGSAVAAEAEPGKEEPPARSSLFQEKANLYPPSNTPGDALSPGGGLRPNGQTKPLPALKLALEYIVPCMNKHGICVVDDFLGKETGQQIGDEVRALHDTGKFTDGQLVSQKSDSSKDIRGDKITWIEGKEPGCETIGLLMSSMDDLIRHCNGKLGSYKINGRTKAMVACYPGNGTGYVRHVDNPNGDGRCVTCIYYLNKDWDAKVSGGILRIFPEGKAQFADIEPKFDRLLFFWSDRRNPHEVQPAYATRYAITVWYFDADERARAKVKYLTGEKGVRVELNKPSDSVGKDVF

| SMILES | IC50 [1] | EPO level of the test substance [2] | RETIC, individual mice (Mice No. 1-8) [3] | RETIC, Average [3] |
| --- | --- | --- | --- | --- |
| O=C(O)CNC(=O)c1ncc2nc(-c3cccc4ccccc34)ccc2c1O [Compound 14, [(5-hydroxy-2-(naphthalene-1-yl)-[1,7]naphthyridine-6-carbonyl)-amino]-acetic acid] | 10 µM | 5.435 mIU/mL | 4 (3×) and 3.8 and 4.1 and 5.8 and 3.4 and 4.3 | 4.18 |
| O=C(O)CNC(=O)c1ncc2nc(-c3cccc(Cl)c3)ccc2c1O [Compound 6, 2-{5-hydroxy-[2-(3-chloro)-phenyl]-[1,7]-naphthyridine-6-formamido} acetic acid] | 0.41 µM | 2.268 mIU/mL | 5.2 (2×) and 4.8 and 6.3 and 4.7 and 6.4 and 3.9 and 5.4 | 5.24 |
| O=C(O)CNC(=O)c1ncc2nc(-c3ccc(C(F)(F)F)cc3)ccc2c1O [Compound 23, 2-{5-hydroxy-[2-(4-trifluoromethyl)-phenyl]-[1,7]-napthyridine-6-formamido} acetic acid] | 5.2 µM | 0.72 mIU/mL | 2.9 and 3.2 (3×) and 3 and 5.1 and 9.1 | 4.24 |
